Measurements as given in US9914760B2, “Methods of identifying, isolating and using odorant and aroma receptors” (Firmenich SA, priority 2013, dated 2018).

Target: Olfr743 (Mus musculus, UniProt L7N1Y2)
Test: cell-based cAMP assay (HTRF), HEK293T co-transfected with Gαolf
Conditions: 300 μM 2-acetonaphthone
Text: The activity of candidate mouse receptors Olfr740 (SEQ ID NO: 1 and SEQ ID NO: 2), Olfr743 (SEQ ID NO: 5 and SEQ ID NO: 6), and Olfr746 (SEQ ID NO: 37 and SEQ ID NO: 38) to both indole and skatole malodors were confirmed in cell-based cAMP assays. In FIGS. 5A and 5B, FLAG Rho-tagged (SEQ ID 18) Olfr743 (SEQ ID NO: 6) and Olfr740 (SEQ ID NO: 2) cDNA sequences were co-transfected with Gαolf (SEQ ID NO: 21) and exposed to increasing concentrations of indole (left) or skatole (right). FIGS. 5C and 5D are repeat experiments showing similar activity of Olfr740 (SEQ ID NO: 2) with Olfr743 (SEQ ID NO: 6) with indole and skatole. In FIG. 5E, the FLAG Rho-tagged (SEQ ID 18) Olfr746 (SEQ ID NO: 38) cDNA sequence was co-transfected with Gαolf (SEQ ID NO: 21) and exposed to increasing concentrations of indole or skatole. Odorant-induced activity was detected by measuring cAMP levels in the cytosol using the HTRF approach (CisBio kit). […] Co-transfection of HEK cells with Gαolf (SEQ ID NO: 21) alone (no receptor) were used as controls for non-specific activity (control). Activity is defined as the baseline corrected HTRF ratios normalized to the highest signal in the experiment. […] All three receptors show specific dose dependent activity to the malodor compounds and, as such, validate the process for identifying receptors for these compounds. Mouse receptors Olfr740 (SEQ ID NO: 1 and SEQ ID NO: 2) and Olfr743 (SEQ ID NO: 5 and SEQ ID NO: 6) were identified from isolated olfactory neurons that responded to both indole and skatole. Mouse receptor Olfr746 (SEQ ID NO: 37 and SEQ ID NO: 38) was identified in silico by database mining using Olfr740 (SEQ ID NO: 2) and Olfr743 (SEQ ID NO: 6) as query sequences. The receptors are modified at their N-terminus with the FLAG tag and the first 20 amino acids of the bovine rhodopsin receptor (SEQ ID 18), transiently expressed in HEK 293T cells, and stimulated separately with indole and skatole to confirm their identity as bona fide indole/skatole receptors. Co-expression of the human G alpha subunit Gαolf (SEQ ID NO: 21) activates the Gs transduction pathway that leads to an internal cAMP increase upon binding to the appropriate ligand.
Once identified using the procedure outlined herein, the resulting malodor receptor cell lines can be used to screen chemical libraries for compounds that modulate their activity and possibly human perception. This experiment was performed under the same conditions as in Example 4. Cells transfected with Rho-tagged (SEQ ID NO: 18) Olfr743 (SEQ ID NO: 6) were exposed to increasing concentrations of indole in the presence or absence of 300 μM 2-actetonaphthone. […] In the presence of the antagonist compound, a rightward shift of in the dose-response curve is observed resulting in a 4 fold increase in the EC50 to indole. Activity is defined as the baseline corrected HTRF ratios normalized to the highest signal in the experiment.

Chain of Olfr743 (P38405 2-381): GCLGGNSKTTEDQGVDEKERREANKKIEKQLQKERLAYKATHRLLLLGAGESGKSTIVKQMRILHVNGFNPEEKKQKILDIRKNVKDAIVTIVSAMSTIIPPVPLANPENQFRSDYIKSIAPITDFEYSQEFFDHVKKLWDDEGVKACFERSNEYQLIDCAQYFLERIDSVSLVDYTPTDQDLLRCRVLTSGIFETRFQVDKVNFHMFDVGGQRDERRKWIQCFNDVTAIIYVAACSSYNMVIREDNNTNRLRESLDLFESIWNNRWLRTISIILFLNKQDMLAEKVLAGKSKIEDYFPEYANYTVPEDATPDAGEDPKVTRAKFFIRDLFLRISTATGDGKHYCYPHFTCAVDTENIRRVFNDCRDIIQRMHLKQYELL
Chain of Olfr743 (L7N1Y2 entry or part of it): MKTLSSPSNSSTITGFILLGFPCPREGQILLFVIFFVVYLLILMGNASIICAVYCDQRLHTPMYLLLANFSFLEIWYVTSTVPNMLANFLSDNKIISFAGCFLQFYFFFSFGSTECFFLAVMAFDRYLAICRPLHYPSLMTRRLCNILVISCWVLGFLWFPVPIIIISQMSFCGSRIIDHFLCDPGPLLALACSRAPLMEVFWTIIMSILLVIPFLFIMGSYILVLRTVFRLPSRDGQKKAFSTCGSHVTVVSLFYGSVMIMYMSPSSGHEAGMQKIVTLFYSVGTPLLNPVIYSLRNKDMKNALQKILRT

## CC(=O)c1ccc2ccccc2c1 [2-acetonaphthone]
  inhibition of Olfr743 activity to indole: inhibits the activity
Rightward shift of dose-response curve
  increase in the EC50 to indole: 4 fold
